Experiments:
[1] = biological target: T1, human estrogen receptor (Homo sapiens, UniProt P03372); details: Murdter et al., Hum. Mol. Genet. 21:1145 (2012); cited from earlier work
T1 sequence (P03372 1-595): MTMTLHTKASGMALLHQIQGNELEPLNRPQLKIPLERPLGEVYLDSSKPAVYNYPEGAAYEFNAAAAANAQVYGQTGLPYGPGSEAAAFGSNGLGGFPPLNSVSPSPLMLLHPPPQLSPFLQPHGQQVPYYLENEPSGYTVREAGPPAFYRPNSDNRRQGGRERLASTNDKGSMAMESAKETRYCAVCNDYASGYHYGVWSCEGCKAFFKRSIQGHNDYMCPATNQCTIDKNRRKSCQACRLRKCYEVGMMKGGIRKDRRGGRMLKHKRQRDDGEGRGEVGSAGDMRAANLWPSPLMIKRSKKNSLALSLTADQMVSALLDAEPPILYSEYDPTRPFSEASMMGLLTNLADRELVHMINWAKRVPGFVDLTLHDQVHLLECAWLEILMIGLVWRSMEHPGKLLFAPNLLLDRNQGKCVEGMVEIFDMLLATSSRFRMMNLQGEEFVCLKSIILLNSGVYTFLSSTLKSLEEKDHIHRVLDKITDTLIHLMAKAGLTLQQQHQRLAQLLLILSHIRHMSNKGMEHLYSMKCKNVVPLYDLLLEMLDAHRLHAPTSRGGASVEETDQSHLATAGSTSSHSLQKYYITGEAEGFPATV

[2] = tested on: circulating IGF-1; details: Campbell et al., J. Clin. Pathol: Mol Pathol. 54:307 (2001); cited from earlier work
[3] = tested on: serum (circulating) IGF-1; test: First clinical study: serum IGF-1 by immunoenzymometric assay, trans-clomiphene vs Testim over six months; format: in vivo, human
Description: The effect of the isolated trans-clomiphene isomer on free serum IGF-1 was tested in three separate clinical studies.
Adult male subjects with a morning total testosterone blood level of <300 ng/dl and a serum LH of <15 IU/ml who had previously undergone between 6 months and two years of topical testosterone therapy were administered either trans-clomiphene (25 mg/day via oral capsule) or a topical testosterone gel (Testim®, 50 mg applied daily) over a six month period according to the first study. Following an initial screening visit (Visit 1-V1), topical testosterone replacement therapy in the subjects was discontinued for either three weeks or three months. At the end of the washout period (Visit 2-V2), quantitative determination of baseline serum (circulating) IGF-1 measurements were made in the subjects by immunoenzymometric assay (Immunodiagnostics Systems Ltd., OCTEIA® IGF-1 kit) and treatment with either trans-clomiphene or Testim® was initiated. Follow-up measurements were taken at 3 months post initial dose (Visit 4-V4), 6 months post initial dose (Visit 5-V5) and one month after cessation of treatment (Visit 6-V6). Seven subjects completed six months of trans-clomiphene therapy and five subjects completed six months of Testim® therapy. The results are presented at FIG. 1. At baseline (V2), serum IGF-1 levels in both patient groups averaged about 140 ng/ml. […] Thus, circulating serum IGF-1 levels were reduced over 40% in subjects administered trans-clomiphene whereas exogenous testosterone had no effect on circulating serum IGF-1. Importantly, aside from low testosterone, these subjects were otherwise healthy—thus, administering trans-clomiphene provides an effective method for reducing serum levels of IGF-1 produced by the liver (i.e. growth-hormone dependent IGF-1).

[4] = tested on: serum IGF-1; test: Second clinical study: serum IGF-1 after three months of trans-clomiphene or placebo; format: in vivo, human; details: for Mean Change from Baseline (st dev): P<0.0001 vs placebo; for mean reduction in serum IGF-1 levels: three months
Description: Another study measured serum IGF-1 levels in human males with low/low-normal testosterone following treatment with trans-clomiphene. Briefly 38 males were administered trans-clomiphene at 12.5 mg per day, 35 males were administered trans-clomiphene at 25 mg per day and 43 males were administered a placebo (control group). Serum IGF-1 levels were measured by immunoenzymometric assay as described above at baseline and following three months of treatment with trans-clomiphene or placebo for each treatment group.

[5] = tested on: serum IGF-1; test: Third clinical study: IGF-1 after 6 weeks of trans-clomiphene compared to AndroGel; format: in vivo, human
[6] = tested on: corticotropin, prolactin or thyroid stimulating hormone; test: Studies on the effects of enclomiphine on men: other hormones secreted by the pituitary; format: in vivo, human
From the text: The present invention provides methods for reducing IGF-1 levels in a subject in need of such treatment. […] Clomiphene is thought to exert its effects at the level of the hypothamus-pituitary axis by specifically stimulating secretion of the gonadotropic hormones LH and FSH. Neither of these gonadotropic hormones is known to play a general role in establishment or proliferation of cancer. Studies on the effects of enclomiphine on men found no changes in other hormones secreted by the pituitary such as corticotropin, prolactin or thyroid stimulating hormone. Growth hormone (GH), secreted by the pituitary is known to drive production of IGF-1 by the liver. Without wishing to be bound by theory it is believed that trans-clomiphene suppresses the pituitary production of GH thereby reducing the endocrine stimulated production of liver IGF-1. The activity of trans-clomiphene in reducing serum IGF-1 levels, renders the compositions useful for treating a variety of cancers having strong expression or overexpression of IGF-1 as a common underlying etiology.

**Q.** For CCN(CC)CCOc1ccc(C(=C(Cl)c2ccccc2)c2ccc(O)cc2)cc1 [4-hydroxy-trans-clomiphene], which “ligand strength for the human estrogen receptor” value [1] is on record?
**A.** strong ligands

**Q.** Which “change to circulating IGF-1 levels after treatment” value [2] does the source give for CCC(=C(c1ccccc1)c1ccc(OCCN(C)C)cc1)c1ccccc1 [tamoxifen, 2-[4-(1,2-diphenylbut-1-enyl)phenoxy]-N,N-dimethyl-ethanamine] here?
**A.** no change

**Q.** Which “serum IGF-1 level at baseline (V2)” value ([3]; group average at end of washout, before treatment, hypogonadal adult males) does the source give for CCN(CC)CCOc1ccc(/C(=C(/Cl)c2ccccc2)c2ccccc2)cc1 [trans-clomiphene] here?
**A.** about 140 ng/ml

**Q.** What about the “serum IGF-1 level after 3 months of treatment (V4)” value ([3]; trans-clomiphene 25 mg/day oral capsule, n=7) of the same compound?
**A.** below 80 ng/ml

**Q.** What about the “serum IGF-1 after 6 months of treatment (V5)” value ([3]; trans-clomiphene 25 mg/day oral or Testim 50 mg daily topical) of the same compound?
**A.** remained depressed

**Q.** What about the “reduction of circulating serum IGF-1” value ([3]; trans-clomiphene 25 mg/day, vs baseline) of the same compound?
**A.** over 40%

**Q.** What about the “Baseline IGF-1 (st dev)” value ([4]; 12.5 mg per day group, n=38, before treatment) of the same compound?
**A.** 115.2 (35.11) μg/L

**Q.** What about the “Mean Change from Baseline (st dev)” value ([4]; 12.5 mg per day, n=38, month 3) of the same compound?
**A.** −36.8 (22.3) μg/L

**Q.** And the “Month 3 IGF-1 (st dev)” value ([4]; 12.5 mg per day, n=38, three months of treatment)?
**A.** 77.3 (30.8) μg/L

**Q.** And the “mean reduction in serum IGF-1 levels” value ([4]; 12.5 mg per day)?
**A.** ~32%

**Q.** What about the “Baseline IGF-1 (st dev)” value ([4]; 25 mg per day group, n=35, before treatment) of the same compound?
**A.** 107.2 (39.4) μg/L

**Q.** What about the “Mean Change from Baseline (st dev)” value ([4]; 25 mg per day, n=35, month 3) of the same compound?
**A.** −38.3 (29.5) μg/L

**Q.** And the “Month 3 IGF-1 (st dev)” value ([4]; 25 mg per day, n=35, three months of treatment)?
**A.** 70.4 (38.6) μg/L

**Q.** What about the “mean reduction in serum IGF-1 levels” value ([4]; 25 mg per day) of the same compound?
**A.** 36%

**Q.** And the “IGF-1 - Naïve men” value ([5]; 6.25 mg daily group, n=12, baseline)?
**A.** 101 ± 43 µg/L

**Q.** And the “IGF-1 - Treated men” value ([5]; 6.25 mg daily, n=12, after 6 weeks, p = 0.008 compared to AndroGel (MWW))?
**A.** 54 ± 30 µg/L

**Q.** What about the “IGF-1 - Naïve men” value ([5]; 12.5 mg daily group, n=10, baseline) of the same compound?
**A.** 94 ± 47 µg/L

**Q.** And the “IGF-1 - Treated men” value ([5]; 12.5 mg daily, n=10, after 6 weeks, p = 0.0035 compared to AndroGel (MWW))?
**A.** 50 ± 24 µg/L

**Q.** What about the “IGF-1 - Naïve men” value ([5]; 25 mg daily group, n=12, baseline) of the same compound?
**A.** 96 ± 45 µg/L

**Q.** What about the “IGF-1 - Treated men” value ([5]; 25 mg daily, n=12, after 6 weeks, p = 0.008 compared to AndroGel (MWW)) of the same compound?
**A.** 62 ± 42 µg/L

**Q.** What about the “changes in other hormones secreted by the pituitary (corticotropin, prolactin, thyroid stimulating hormone)” value [6] of the same compound?
**A.** no changes

From patent publication US9687458B2, “Trans-clomiphene for use in cancer therapy” (REPROS THERAPEUTICS INC., priority 2012, dated 2017)
